# Key:
# Experiment in all cases: relative viability (nuclei count vs DMSO), 5 days (fraction); higher = more cells survive
# [1] = compound: CC1=C(C(=O)N2C=CSC2=N1)CCN3CCC(=C(C4=CC=CC=C4)C5=CC=C(C=C5)F)CC3
# Summary of the method: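 Five library-drug doses spaced by √10 were pinned onto vehicle-anchored 1536-well plates of lung cancer cell lines that had been kept overnight at 37 °C. Cells went 5 days without medium change, then were fixed, permeabilised and Hoechst-stained together, imaged at 4× and counted by MetaXpress. Viability is the ratio of treated-well to vehicle-well nuclei, taken as a median over plates. Plates required control CV below 25% and at least one doubling.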
# [2] = compound: CC1=C(C(=O)N2C=CSC2=N1)CCN3CCC(=C(C4=CC=CC=C4)C5=CC=C(C=C5)F)CC3 + Cc1cc(Nc2cc(N3CCN(C)CC3)nc(Sc3ccc(NC(=O)C4CC4)cc3)n2)n[nH]1 [Tozasertib] (partner 0.1 µM)
# Summary of the method: (§1)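 Lung cancer cell lines were seeded in 1536-well plates and dosed by pin tool the next day, with either a single drug or a fixed anchor-drug dose combined with five library-drug doses (not always all listed) spaced in √10 steps. Five days later, one step fixed the cells and stained their nuclei (final 0.05% Triton X-100, 1% formaldehyde, 1 ug/ml Hoechst), and nuclei were counted on 4× images. Relative viability is the nuclei count in treated wells divided by the count in vehicle wells, and each value is the median of duplicate plates.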
# [3] = compound: CC1=C(C(=O)N2C=CSC2=N1)CCN3CCC(=C(C4=CC=CC=C4)C5=CC=C(C=C5)F)CC3 + CC1(C)CCC(c2ccc(Cl)cc2)=C(CN2CCN(c3ccc(C(=O)NS(=O)(=O)c4ccc(N[C@H](CCN5CCOCC5)CSc5ccccc5)c(S(=O)(=O)C(F)(F)F)c4)cc3)CC2)C1 [Navitoclax] (partner 0.5 µM)
# Summary of the method: as §1
# [4] = compound: CC1=C(C(=O)N2C=CSC2=N1)CCN3CCC(=C(C4=CC=CC=C4)C5=CC=C(C=C5)F)CC3 + N=C(N)NC(=N)NCCc1ccccc1 [Phenformin] (partner 250 µM)
# Summary of the method: as §1
Cell Line,relative viability ([1]; 0.08 µM),relative viability ([1]; 0.253 µM),relative viability ([1]; 0.8 µM),relative viability ([1]; 2.53 µM),relative viability ([1]; 8 µM),relative viability ([2]; first compound 0.08 µM),relative viability ([2]; first compound 0.253 µM),relative viability ([2]; first compound 0.8 µM),relative viability ([2]; first compound 2.53 µM),relative viability ([2]; first compound 8 µM),relative viability ([3]; first compound 0.08 µM),relative viability ([3]; first compound 0.253 µM),relative viability ([3]; first compound 0.8 µM),relative viability ([3]; first compound 2.53 µM),relative viability ([3]; first compound 8 µM),relative viability ([4]; first compound 0.08 µM),relative viability ([4]; first compound 0.253 µM),relative viability ([4]; first compound 0.8 µM),relative viability ([4]; first compound 2.53 µM),relative viability ([4]; first compound 8 µM)
201T,1.04,1.04,0.986,1.04,1.01,0.976,1.02,0.952,0.973,0.739,1.19,1.16,1.21,1.22,1.23,0.504,0.463,0.433,0.477,0.386
A549,0.841,1.05,1.01,1.06,0.433,–,–,–,–,–,1.32,1.19,1.3,1.37,0.673,0.101,0.203,0.206,0.112,0.151
A-427,0.983,1.08,0.945,1.04,0.939,0.179,0.19,0.175,0.204,0.21,1.08,0.877,0.915,0.973,0.948,0.291,0.287,0.283,0.301,0.266
ABC-1,1.04,0.858,0.871,0.888,0.592,0.15,0.181,0.165,0.206,0.174,–,–,–,–,–,0.267,0.223,0.212,0.248,0.197
BEN,0.886,1,1,1.07,0.856,0.48,0.493,0.493,0.529,0.551,0.0374,0.0689,0.0632,0.23,0.108,0.255,0.281,0.247,0.316,0.21
CAL-12T,1.02,1.08,0.953,1.02,0.723,0.316,0.304,0.311,0.302,0.255,1.21,1.34,1.26,1.33,1.2,0.55,0.593,0.544,0.605,0.346
COR-L23,0.883,1.16,1.22,1.19,0.519,0.18,0.164,0.169,0.214,0.184,0.895,1.06,1.04,1.47,0.525,0.43,0.449,0.39,0.455,0.375
COR-L 105,0.89,0.928,0.787,0.852,0.845,0.322,0.346,0.34,0.388,0.345,0.765,0.708,0.724,0.808,0.634,0.484,0.467,0.402,0.499,0.387
Calu-6,0.906,1.02,1.04,1.03,0.602,–,–,–,–,–,0.873,0.944,0.935,0.969,0.441,–,–,–,–,–
ChaGo-K-1,0.86,1.1,1.06,1.09,0.623,0.202,0.244,0.215,0.232,0.21,1.19,0.888,0.663,1.69,1.11,0.561,0.462,0.53,0.539,0.431
EBC-1,0.845,0.881,1.09,1.02,0.671,–,–,–,–,–,0.396,0.344,0.401,0.316,0.369,–,–,–,–,–
EKVX,0.818,0.984,1.06,1.09,0.711,0.385,0.444,0.35,0.334,0.359,0.718,0.775,0.961,0.848,0.741,0.211,0.26,0.236,0.207,0.221
EMC-BAC-2,1.01,0.798,0.908,1.12,0.796,0.192,0.278,0.275,0.278,0.261,0.906,0.95,1.28,1.16,0.707,0.536,0.495,0.497,0.526,0.414
EPLC-272H,0.832,0.914,0.864,1.03,0.743,0.225,0.25,0.269,0.203,0.515,–,1.18,1.27,1.14,0.827,0.333,0.328,0.286,0.286,0.391
H3255,0.802,1.01,1.04,1.01,0.832,0.497,0.921,0.633,0.489,0.507,0.416,0.393,0.557,0.542,0.419,0.341,0.34,0.352,0.37,0.38
HARA,1.07,1.5,1.06,0.961,0.745,0.111,0.117,0.104,0.111,0.114,1.18,1.33,1.16,1.23,0.537,0.525,0.513,0.54,0.544,0.269
HCC-15,0.955,1.14,1.03,0.991,0.725,0.347,0.447,0.379,0.368,0.281,0.697,0.601,0.762,0.791,0.528,0.432,0.453,0.434,0.423,0.334
HCC-44,1.07,1.04,0.997,1.15,0.888,0.855,1.33,–,0.896,0.525,0.989,1.28,1.01,1.13,0.477,0.172,0.15,0.148,0.217,0.202
HCC-78,0.833,1.08,0.943,0.954,0.806,0.402,0.468,0.451,0.345,0.303,0.834,0.786,0.924,0.838,0.608,0.689,0.76,0.695,0.691,0.531

Cell Line,relative viability ([1]; 0.08 µM),relative viability ([1]; 0.253 µM),relative viability ([1]; 0.8 µM),relative viability ([1]; 2.53 µM),relative viability ([1]; 8 µM),relative viability ([2]; first compound 0.08 µM),relative viability ([2]; first compound 0.253 µM),relative viability ([2]; first compound 0.8 µM),relative viability ([2]; first compound 2.53 µM),relative viability ([2]; first compound 8 µM),relative viability ([3]; first compound 0.08 µM),relative viability ([3]; first compound 0.253 µM),relative viability ([3]; first compound 0.8 µM),relative viability ([3]; first compound 2.53 µM),relative viability ([3]; first compound 8 µM),relative viability ([4]; first compound 0.08 µM),relative viability ([4]; first compound 0.253 µM),relative viability ([4]; first compound 0.8 µM),relative viability ([4]; first compound 2.53 µM),relative viability ([4]; first compound 8 µM)
HCC-366,0.852,1.02,1.06,1.05,0.502,0.103,0.123,0.103,0.0901,0.0622,–,1.09,1.04,1.13,0.343,0.638,0.65,0.626,0.579,0.472
HCC-827,1.02,1.1,1.04,1.05,0.943,0.43,0.396,0.389,0.472,0.399,1.06,1.1,1.01,1.07,0.946,0.4,0.413,0.444,0.398,0.407
HOP-62,1.01,1.02,0.988,0.946,0.577,0.402,0.369,0.305,0.323,0.258,0.516,0.989,1.23,0.796,0.466,0.711,0.774,0.678,0.491,0.381
IA-LM,0.761,0.928,1.1,0.944,0.497,–,–,–,–,–,0.841,0.7,0.823,0.884,0.523,–,–,–,–,–
LC-2-ad,1.09,0.994,0.94,1.04,0.865,0.489,0.487,0.468,0.425,0.418,0.384,0.393,0.489,0.5,0.335,0.656,0.656,0.543,0.62,0.566
LCLC-97TM1,0.921,1.07,1.02,0.874,0.91,0.266,0.166,0.193,0.237,0.182,0.263,0.306,0.347,0.537,0.249,0.435,0.434,0.447,0.448,0.411
LCLC-103H,1.04,1.06,0.957,1.04,0.796,0.437,0.449,0.451,0.486,0.532,–,–,–,–,–,0.327,0.331,0.316,0.308,0.289
LK-2,0.955,0.902,1.07,0.998,0.658,0.176,0.188,0.172,0.161,0.174,0.741,0.962,1.11,1.05,0.703,0.417,0.386,0.301,0.297,0.321
LOU-NH91,1.01,0.927,0.973,1.04,0.911,0.7,0.6,0.688,0.701,0.605,0.625,0.663,0.758,0.698,0.604,0.72,0.676,0.689,0.673,0.597
NCI-H358,0.802,0.921,0.978,1.2,0.639,0.0851,0.0942,0.0998,0.129,0.112,–,–,–,–,–,0.344,0.361,0.361,0.379,0.243
NCI-H522,1.15,1.02,0.834,0.863,0.774,0.551,0.92,0.555,0.523,0.583,–,–,–,–,–,0.769,0.627,0.677,0.607,0.566
NCI-H650,0.853,0.963,0.904,1.1,0.816,0.695,0.801,0.748,0.723,0.689,–,–,–,–,–,0.404,0.521,0.421,0.497,0.404
NCI-H661,0.851,1,1.01,1.02,0.764,0.341,0.35,0.36,0.383,0.361,–,–,–,–,–,0.242,0.268,0.277,0.297,0.291
NCI-H1299,1.08,1,1,1.01,0.714,–,–,–,–,–,1.14,1.03,1.03,1.06,0.654,–,–,–,–,–
NCI-H1648,0.797,0.802,0.802,0.706,0.883,0.391,–,–,0.392,0.525,–,–,–,–,–,–,–,–,–,–
NCI-H1703,1.03,0.821,0.865,1.13,0.624,–,–,–,–,–,1.19,1.13,1.1,1.3,0.627,–,–,–,–,–
NCI-H1792,0.759,0.825,0.942,0.856,0.403,–,–,–,–,–,0.454,0.518,0.602,0.481,0.47,–,0.257,0.211,0.33,0.254
NCI-H2342,0.761,1.03,0.949,1.02,0.792,0.559,0.492,0.585,0.504,0.431,–,–,–,–,–,0.557,0.605,0.52,0.597,0.523
